In ChEMBL document CHEMBL1133592, “trans-1-[(2-Phenylcyclopropyl)methyl]-4-arylpiperazines: mixed dopamine D(2)/D(4) receptor antagonists as potential antipsychotic agents” (J Med Chem, 2000) one finds half-life, IC50 and minimal effective dose data, which are given here for 31 compounds.

One may read the half-life as how long it takes for the measured level to halve. The low end stands for rapid decline, the high end for slow decline. Broadly, the IC50 is the point on the concentration scale where inhibition reaches its midpoint. Higher therefore signals lower potency.

Test system in one series: not listed separately
Nature of the series: Half-life determined upon exposure to rat liver microsomes. The series is classed as ADME, Microsome.
Conditions: not given
Take `Br.Cc1ccc(N2CCN(C[C@@H]3C[C@H]3c3ccccc3)CC2)c(C)c1`: the half-life came to 3 min.

`Br.Clc1ccc(N2CCN(C[C@H]3C[C@@H]3c3ccccc3)CC2)c(Cl)c1` yielded a half-life of 2 min.

Test system in a further series: not listed separately
Nature of the series: Half-life determined upon exposure to human liver microsomes. The series is classed as ADME, Microsome.
Conditions: not given
In general terms: Liver microsomes are vesicles of endoplasmic reticulum, rich in cytochrome P450 enzymes.
`Br.Cc1ccc(N2CCN(C[C@@H]3C[C@H]3c3ccccc3)CC2)c(C)c1` returned a half-life of 16 min.

As to `Br.Clc1ccc(N2CCN(C[C@H]3C[C@@H]3c3ccccc3)CC2)c(Cl)c1`, the half-life amounted to 19 min.

Another series deals with T1, Adrenergic receptor alpha-1 (Rattus norvegicus, UniProt P15823+P23944+P43140).
T1 sequence (P15823 whole entry): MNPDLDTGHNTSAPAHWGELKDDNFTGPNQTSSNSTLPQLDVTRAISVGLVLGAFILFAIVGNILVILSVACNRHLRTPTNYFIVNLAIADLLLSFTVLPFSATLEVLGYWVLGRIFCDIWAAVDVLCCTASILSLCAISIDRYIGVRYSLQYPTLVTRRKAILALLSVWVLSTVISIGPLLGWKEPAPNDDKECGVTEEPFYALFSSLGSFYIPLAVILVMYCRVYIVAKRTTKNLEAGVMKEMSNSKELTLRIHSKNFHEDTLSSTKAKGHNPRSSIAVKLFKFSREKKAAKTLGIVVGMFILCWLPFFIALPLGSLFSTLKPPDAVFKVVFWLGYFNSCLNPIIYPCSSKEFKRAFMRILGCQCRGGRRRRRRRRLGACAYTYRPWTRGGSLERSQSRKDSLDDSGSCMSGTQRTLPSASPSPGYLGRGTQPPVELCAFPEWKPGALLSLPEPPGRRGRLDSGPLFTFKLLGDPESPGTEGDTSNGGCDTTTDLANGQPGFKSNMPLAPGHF
T1 sequence (P23944 whole entry): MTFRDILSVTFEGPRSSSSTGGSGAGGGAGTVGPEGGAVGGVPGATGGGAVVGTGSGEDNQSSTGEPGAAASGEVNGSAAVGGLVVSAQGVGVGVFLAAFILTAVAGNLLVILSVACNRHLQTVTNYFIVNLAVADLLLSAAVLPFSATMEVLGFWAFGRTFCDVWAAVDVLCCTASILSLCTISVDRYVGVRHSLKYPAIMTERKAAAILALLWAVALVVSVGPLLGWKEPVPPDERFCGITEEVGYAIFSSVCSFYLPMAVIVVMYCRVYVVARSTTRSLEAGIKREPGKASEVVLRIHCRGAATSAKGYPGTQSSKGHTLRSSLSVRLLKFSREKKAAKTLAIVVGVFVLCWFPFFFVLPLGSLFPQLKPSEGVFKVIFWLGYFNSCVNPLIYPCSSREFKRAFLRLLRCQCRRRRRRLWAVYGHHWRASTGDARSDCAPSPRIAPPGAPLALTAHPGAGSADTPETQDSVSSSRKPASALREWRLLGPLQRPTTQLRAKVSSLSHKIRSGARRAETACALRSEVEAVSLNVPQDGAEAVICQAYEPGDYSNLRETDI
T1 sequence (P43140 whole entry): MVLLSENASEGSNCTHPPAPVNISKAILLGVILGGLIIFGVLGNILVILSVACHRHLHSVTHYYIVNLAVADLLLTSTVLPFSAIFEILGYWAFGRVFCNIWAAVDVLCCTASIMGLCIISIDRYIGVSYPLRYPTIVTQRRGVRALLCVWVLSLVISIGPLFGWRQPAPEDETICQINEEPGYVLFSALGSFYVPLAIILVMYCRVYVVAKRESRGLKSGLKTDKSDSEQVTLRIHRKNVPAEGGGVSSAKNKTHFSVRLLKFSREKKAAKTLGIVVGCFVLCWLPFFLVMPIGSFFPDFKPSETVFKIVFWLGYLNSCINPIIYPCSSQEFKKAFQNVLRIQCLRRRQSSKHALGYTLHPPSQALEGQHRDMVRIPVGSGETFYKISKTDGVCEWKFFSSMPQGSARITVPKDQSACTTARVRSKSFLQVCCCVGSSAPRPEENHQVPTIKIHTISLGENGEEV
Assay: not given
Conditions: not given
For `Br.c1ccc([C@H]2C[C@@H]2CN2CCN(c3cccnc3)CC2)cc1` (racemic), the IC50 is given as greater than 1246 nM.

In turn, `Br.COc1ccc([C@H]2C[C@@H]2CN2CCN(c3ccc(Cl)cc3Cl)CC2)cc1` (racemic) yielded an IC50 of 61 nM.

Turning to `Clc1ccc(N2CCN(C[C@@H]3C[C@H]3c3ccccc3)CC2)c(Cl)c1`, the half-maximal inhibitory concentration (IC50) is 348 nM.

`Br.Fc1ccc([C@H]2C[C@@H]2CN2CCN(c3ccc(Cl)cc3)CC2)cc1` (racemic) yielded an IC50 of 61 nM.

Consider `Br.Cc1ccc(N2CCN(C[C@@H]3C[C@H]3c3ccccc3)CC2)c(C)c1`, for which the 50% inhibitory concentration (IC50) is 131 nM.

For the compound `Br.Clc1ccc(N2CCN(C[C@H]3C[C@@H]3c3ccccc3)CC2)cc1Cl` (racemic), the IC50 was found to be 45 nM.

Regarding `Br.Clc1ccccc1N1CCN(C[C@H]2C[C@@H]2c2ccccc2)CC1` (racemic), the half-inhibitory concentration (IC50) was 10 nM.

In turn, `Br.Oc1ccc([C@H]2C[C@@H]2CN2CCN(c3ccc(Cl)cc3Cl)CC2)cc1` (racemic) displayed an IC50 of 74 nM.

The compound `Br.Clc1cccc(N2CCN(C[C@H]3C[C@@H]3c3ccccc3)CC2)c1Cl` (racemic) gave an IC50 of 329 nM.

As for `Cl.c1ccc([C@H]2C[C@@H]2CN2CCN(c3ncccn3)CC2)cc1` (racemic), the 50% inhibitory concentration (IC50) amounted to 168 nM.

The compound `Br.Br.COc1cc(F)ccc1N1CCN(C[C@H]2C[C@@H]2c2ccccc2)CC1` gave an IC50 of 14 nM.

Compound `Br.Clc1cccc(N2CCN(C[C@H]3C[C@@H]3c3ccccc3)CC2)c1` (racemic) came in with an IC50 of 70 nM.

With `Br.COc1cc(Cl)ccc1N1CCN(C[C@H]2C[C@@H]2c2ccccc2)CC1`, the IC50 came to 29 nM.

In turn, `Br.Fc1ccc([C@H]2C[C@@H]2CN2CCN(c3ccccc3Cl)CC2)cc1` (racemic) displayed an IC50 of 9 nM.

`Br.Clc1cc(Cl)cc(N2CCN(C[C@H]3C[C@@H]3c3ccccc3)CC2)c1` (racemic) had an IC50 of 1341 nM.

Compound `Br.Clc1ccc(N2CCN(C[C@H]3C[C@@H]3c3ccccc3)CC2)c(Cl)c1` (racemic) had an IC50 of 311 nM.

Consider `Br.Cc1cc(F)ccc1N1CCN(C[C@H]2C[C@@H]2c2ccccc2)CC1`, for which the IC50 is given as 31 nM.

In turn, `c1ccc([C@H]2C[C@@H]2CN2CCN(c3ccccc3)CC2)cc1` (racemic) displayed an IC50 of 22 nM.

Compound `Br.Cc1ccc(N2CCN(CC3CC3c3ccccc3)CC2)c(C)c1` (racemic) yielded an IC50 of 144 nM.

In the case of `Br.COc1c(Cl)cc(N2CCN(C[C@H]3C[C@@H]3c3ccccc3)CC2)cc1Cl` (racemic), the half-inhibitory concentration (IC50) is 193 nM.

For `Br.COc1cccc(N2CCN(C[C@H]3C[C@@H]3c3ccccc3)CC2)c1` (racemic), the half-maximal inhibitory concentration (IC50) is 324 nM.

As for `Br.c1ccc([C@H]2C[C@@H]2CN2CCN(c3ccncc3)CC2)cc1` (racemic), the IC50 is reported as greater than 10000 nM.

The compound `Cl.c1ccc([C@H]2C[C@@H]2CN2CCN(c3ccccn3)CC2)cc1` (racemic) returned an IC50 of 55 nM.

The compound `Br.Cc1ccc(N2CCN(C[C@H]3C[C@@H]3c3ccccc3)CC2)c(C)c1` yielded an IC50 of 137 nM.

`Br.Cc1cc(Cl)ccc1N1CCN(C[C@H]2C[C@@H]2c2ccccc2)CC1` gave an IC50 of 307 nM.

On to `Br.COc1ccc(Cl)cc1N1CCN(C[C@H]2C[C@@H]2c2ccccc2)CC1` (racemic), for which the IC50 is given as 8 nM.

Compound `Br.Clc1ccc(N2CCN(C[C@H]3C[C@@H]3c3ccccc3)CC2)cc1` (racemic) gave a half-maximal inhibitory concentration (IC50) of 81 nM.

On to `Br.COc1ccc(N2CCN(C[C@H]3C[C@@H]3c3ccccc3)CC2)cc1` (racemic), for which the half-inhibitory concentration (IC50) is reported as 633 nM.

As to `Br.Clc1ccc(N2CCN(C[C@H]3C[C@@H]3c3ccccc3)CC2)c(Cl)c1`, the IC50 was 322 nM.

The species named for another series is Rattus norvegicus. In words: animal or person. The following applies: read-out: MED.
Description: Minimum effective dose observed in rat catalepsy experiments
Turning to `O=C(CCCN1CCC(O)(c2ccc(Cl)cc2)CC1)c1ccc(F)cc1` [HALOPERIDOL], the minimal effective dose came out at 0.5 mg/kg.

Another series is filed under the species Rattus norvegicus. In words: animal or person. The following applies: read-out: MED. This is another data set of the same source.
Description: Minimum effective dose that produced a significant effect relative to the amphetamine alone control using a Fisher's LSD post hoc test (P<0.05)
`O=C(CCCN1CCC(O)(c2ccc(Cl)cc2)CC1)c1ccc(F)cc1` [HALOPERIDOL]: the minimal effective dose came out at 0.06 mg/kg.

As to `CN1CCN(C2=Nc3cc(Cl)ccc3Nc3ccccc32)CC1` [CLOZAPINE], the minimal effective dose was 0.5 mg/kg.
